Converted amounts (≈) assume the structure as drawn. Like-named read-outs stand apart in the source and are kept apart here.
What was measured:
[1] = Acute intravenous toxicity studies in mice; type: in vivo, Swiss Albino mice (Charles River); conditions: intravenous (lateral tail vein), iodine concentration 28.2%, pH 7.0-7.2, approx. 1 ml./min, seven day observation, Litchfield and Wilcoxon
Description: (§1) Toxicity evaluations in accordance with three different techniques were carried out on aqueous solutions of the compounds of Examples I and II. The techniques utilized are described below.
Swiss Albino mice (Charles River) were dosed in the lateral tail vein with aqueous solutions of the above-noted iodinated compounds having an iodine concentration of 28.2% with a pH of 7.0-7.2. The solutions were injected at the rate of approximately 1 ml./min. […] The LD50 values were calculated by the method of Litchfield and Wilcoxon (J. of Pharmac. and Exptl. Therap. 96: 99-113, 1949).

[2] = Intracerebral toxicity in mice; type: in vivo, Swiss Albino mice (Charles River); conditions: aqueous solution, seven day observation, Litchfield and Wilcoxon
Description: as §1
Swiss Albino mice (Charles River) were used. Fixed volumes of aqueous solutions of the iodinated compounds were injected intracerebrally via a 27 gauge needle (1/4 inch in length) according to the method of Haley et al. (Br. J. of Pharmac. 12:12-15, 1957). The animals were observed immediately following injections and daily throughout a seven day observation period. The LD50 values were calculated by the method of Litchfield and Wilcoxon (J. of Pharmac. and Exptl. Therap. 96:99-113, 1949).

Water solubility = type: physicochemical
[3] = Intravenous pyelographic studies in dogs; type: in vivo; conditions: dog
Description: The compounds of Examples I and II were employed in intravenous pyelographic studies carried out in dogs. At a dosage of 1000 mg.

[4] = Intracisternal toxicity in rats; type: in vivo, Sprangue-Dawley (Carworth) rats; conditions: aqueous solution, two day observation, Litchfield and Wilcoxon
Description: as §1
Sprangue-Dawley (Carworth) rats were used. The method used was a variation of the procedure outlined by Melartin et al. (Invest. Rad. 5: 13-21, 1970). After dosing, the animals were housed individually and observed for immediate reactions and periodically for a two day observation period. The LD50 values were calculated according to the method of Litchfield and Wilcoxon (J. of Pharmac. and Exptl. Therap. 96:99-115, 1949).

Row | Compound | LD50 Value, I.V. (Mice) [1] | LD50 Value, Intracerebral (Mice) [2] | solubility at 730 h (Water solubility; after standing for one month) [mg/mL] | solubility (Water solubility; initial determination, read-out: Water solubility (initially)) [mg/mL] | Pyelographic visualization ([3]; 1000 mg. I/kg., five minutes after injection) | LD50 Value, Intracisternal (Rats) [4] [mg. I/kg. body wt.] | solubility (Water solubility; read-out: Water solubility) [mg/mL] | Pyelographic visualization ([3]; 155 mg. I/kg., five minutes after injection) | Pyelographic visualization ([3]; 155 mg. I/kg., one minute after injection)
1 | CNC(=O)c1c(I)c(NC(=O)OCC(=O)[C@@H](O)[C@H](O)[C@@H](O)CO)c(I)c(C(=O)N(C)C)c1I [Example I, 1-[N-(2,4,6-triiodo-3-N,N-dimethylcarbamyl-5-N-methylcarbamyl)carbanilyl]-L-sorbose] | 3,027 mg. I/kg. body wt. | 1,450 mg. I/kg. body wt. | 200 (≈ 248 mM) | 1000 (≈ 1240 mM) | very good contrast of the kidneys, collecting pelvises and urinary bladder | 13 | – | – | –
2 | CNC(=O)c1c(I)c(NC(=O)OC[C@@H](O)[C@H](O)[C@H](O)[C@@H](O)C=O)c(I)c(N(C)C(C)=O)c1I [Example II, 6-[2,4,6-Triiodo-3-(N-methylacetamido)-5-(N-methylcarbamyl)carbanilyl]-D-galactose] | 2,300 mg. I/kg. body wt. | 222 mg. I/kg. body wt. | – | – | – | < 20 | ≥ 1000 | a better shadow of the kidneys was seen together with partial visualization of the ureters | visualization of the kidneys

Source: patent publication US4230845A, “Polyhydroxy-alkyl-3,5-disubstituted-2,4,6-triiodocarbanilates” (Mallinckrodt, Inc., priority 1978, dated 1980)
